Laboratory results reported in paper PMC7822874, “Chemoprotective antimalarials identified through quantitative high-throughput screening of Plasmodium blood and liver stage parasites” (Scientific Reports, 2021).
Where two headings read alike, the source gives them in different places.

What was measured:
[1] = test system: Plasmodium falciparum Dd2 asexual blood stage parasites; assay: microbe, parasite or virus in culture; parameters: species or system Plasmodium falciparum Dd2 in human erythrocytes; single determination (one 11-point concentration-response curve); settings: Plasmodium falciparum, DD2, Erythrocyte, 72 h; read-out: AC50
[2] = in vitro; settings: human, hepg2 cells
[3] = in vitro; settings: human, HepG2-A16-CD81EGFP cells, uninfected
[4] = in vitro; settings: human, hepg2-a16-cd81egfp cells, % viability
[5] = test system: HepG2-A16-CD81EGFP cells; settings: for Average HepG2 3 µM response( %): averaged response (percent); for HepG2 viability signal, 1 uM, repeat 2: nominal 1 uM (10 mM stock), […] for 15 mM, 1.2 uM for 12 mM, 2 uM for 20 mM stock; for HepG2 viability signal, 1 uM, repeat 2 / HepG2 viability signal, 3 uM, repeat 2: average of 2 wells; for HepG2 viability signal, 3 uM, repeat 2: nominal 3 uM (10 mM stock), 4.5 uM for 15 mM, 3.6 uM for 12 mM, 6 uM for 20 mM stock
[6] = test system: P. falciparum Dd2 (clone B2) asexual blood stage parasites; assay: P. falciparum Dd2 asexual blood stage SYBR Green-I 72 h proliferation assay (qHTS); type: cell-based, Plasmodium falciparum; settings: log10 of AC50 in M; for Pf ABS Log AC50 (M): averaged P. falciparum asexual blood stage potency
[7] = test system: P. berghei-ANKA-GFP-LucCON liver stage parasites in HepG2-A16-CD81EGFP cells; assay: P. berghei liver stage Pb-Luc assay, Method 1 (UCSD, 1536-well); for Pb-Luc signal, 1 uM, repeat 1: reference of the scale not given here; for Pb-Luc signal, 1 uM, repeat 2: reference of the scale not given here; for Pb-Luc signal, 1 uM, repeat 3: reference of the scale not given here; for Pb-Luc signal, 3 uM, repeat 1: reference of the scale not given here; for Pb-Luc signal, 3 uM, repeat 2: reference of the scale not given here; for Pb-Luc signal, 3 uM, repeat 3: reference of the scale not given here; type: cell-based, Plasmodium berghei; settings: for Average P. berghei 3 µM response( %) / Average P. berghei 1 µM response (%): P. berghei liver stage, averaged response (percent); for Average P. berghei 1 µM response (%): the header list (r8) defines it as the 1 µM dose; for activity at 1 µM / activity at 3 µM / AC50: Plasmodium berghei; for activity at 1 µM / activity at 3 µM: 48 h, average of 2 wells, 1536-well plate; for activity at 1 µM: nominal 1 uM (10 mM stock), […] for 15 mM, 1.2 uM for 12 mM, 2 uM for 20 mM stock; for activity at 3 µM: nominal 3 uM (10 mM stock), 4.5 uM for 15 mM, 3.6 uM for 12 mM, 6 uM for 20 mM stock; for AC50: Method 1
[8] = test system: luciferase-expressing P. berghei liver stage parasites in HepG2 cells; assay: Inhibition of liver-stage development assay (ILSDA), Method 2 (WRAIR, 96-well); type: cell-based, Plasmodium berghei; settings: Method 2, dose response; for AC50: Plasmodium berghei, HepG2, P. berghei liver stage
[9] = HepG2, the header list (r10) describes it as the 1 µM dose
[10] = repeat 1, read-out: Pb-Luc signal, 1 uM, repeat 1
[11] = repeat 2, read-out: Pb-Luc signal, 1 uM, repeat 2
[12] = repeat 3, read-out: Pb-Luc signal, 1 uM, repeat 3
[13] = repeat 1, read-out: Pb-Luc signal, 3 uM, repeat 1
[14] = repeat 2, read-out: Pb-Luc signal, 3 uM, repeat 2
[15] = repeat 3, read-out: Pb-Luc signal, 3 uM, repeat 3

SMILES: Cc1cc(N2CCC(N(C)C3CCCC3)CC2)nc2cc(O)ccc12 [MLS000118330-01]
- AC50 [1]: 5.96 µM
- CC50 at 48 h [2]: > 57 µM

SMILES: CCCn1c2c(c(=N)c3c1CCC3)CCC2 [MLS001047442-01]
- AC50 [1]: 13.3 µM
- CC50 at 48 h [2]: > 57 µM
- viability at 48 h [3]: 99.2%
- viability at 48 h, 1 µM [3]: 99.2%

SMILES: COc1cc(C)cc(CN2CCC(Cc3ccccc3)CC2)c1O [MLS001178265]
- viability at 3 µM [4]: 87.6%
- Average HepG2 3 µM response( %) ([5]; HepG2, 3 µM dose): 88%
- Average HepG2 3 µM response( %) [5, 9]: 97%
- Pf ABS Log AC50 (M) [6]: -6.137 M
- Average P. berghei 3 µM response( %) [7]: 102%
- Average P. berghei 1 µM response (%) [7]: 89%

SMILES: CCOc1ccc(-n2c(SCC(=O)OC)nc3sc4c(c3c2=O)CCN(C)C4)cc1 [MLS001213437]
- viability at 3 µM [4]: 103%
- Average HepG2 3 µM response( %) ([5]; HepG2, 3 µM dose): 103%
- Average HepG2 3 µM response( %) [5, 9]: 112%
- Pf ABS Log AC50 (M) [6]: -5.950 M
- Average P. berghei 3 µM response( %) [7]: 102%
- Average P. berghei 1 µM response (%) [7]: 88%

SMILES: COc1ccc(C2c3[nH]c4ccccc4c3C[C@H]3C(=O)N(C4CCN(Cc5ccccc5)CC4)CC(=O)N23)cc1OC (some centres unmarked) [MLS001215281]
- viability at 3 µM [4]: 90.3%
- Average HepG2 3 µM response( %) ([5]; HepG2, 3 µM dose): 90%
- Average HepG2 3 µM response( %) [5, 9]: 101%
- Pf ABS Log AC50 (M) [6]: -5.612 M
- Average P. berghei 3 µM response( %) [7]: 73%
- Average P. berghei 1 µM response (%) [7]: 94%

SMILES: CCc1ccccc1OC[C@@H](O)CN[C@@H]1CCCc2ccccc21 [NCGC00025196]
- viability at 3 µM [4]: 91.7%
- Average HepG2 3 µM response( %) ([5]; HepG2, 3 µM dose): 92%
- Average HepG2 3 µM response( %) [5, 9]: 95%
- Pf ABS Log AC50 (M) [6]: -5.800 M
- Average P. berghei 3 µM response( %) [7]: 77%
- Average P. berghei 1 µM response (%) [7]: 73%

SMILES: Cc1ccc(O)c(-c2cc(C(=O)Nc3ccc([S+](=O)([O-])N4CC(C)OC(C)C4)cc3)n[nH]2)c1 (centres unmarked) [NCGC00071593]
- viability at 3 µM [4]: 97%
- Average HepG2 3 µM response( %) ([5]; HepG2, 3 µM dose): 97%
- Average HepG2 3 µM response( %) [5, 9]: 100%
- Pf ABS Log AC50 (M) [6]: -6.150 M
- Average P. berghei 3 µM response( %) [7]: 65%
- Average P. berghei 1 µM response (%) [7]: 89%

SMILES: CCN1CCN(c2cc(C)c3cc(NC(=O)c4cccc(Cl)c4)ccc3n2)CC1 [NCGC00103820-01]
- AC50 [1]: 4.73 µM
- CC50 at 48 h [2]: > 57 µM

SMILES: CC(C)N(Cc1ccccc1)C(=O)CN1C(=O)COc2ccc([S+](=O)([O-])N3CCCCCC3)cc21 [NCGC00123222]
- viability at 3 µM [4]: 93.6%
- Average HepG2 3 µM response( %) ([5]; HepG2, 3 µM dose): 94%
- Average HepG2 3 µM response( %) [5, 9]: 99%
- Pf ABS Log AC50 (M) [6]: -6.100 M
- Average P. berghei 3 µM response( %) [7]: 127%
- Average P. berghei 1 µM response (%) [7]: 105%

SMILES: CN(C(Cc1ccc(O[S+](=O)([O-])c2cccc3cnccc23)cc1)C(=O)N1CCN(c2ccccc2)CC1)[S+](=O)([O-])c1cccc2cnccc12 (centres unmarked) [NCGC00163381]
- viability at 3 µM [4]: 79.2%
- Average HepG2 3 µM response( %) ([5]; HepG2, 3 µM dose): 79%
- Average HepG2 3 µM response( %) [5, 9]: 87%
- Pf ABS Log AC50 (M) [6]: -6.300 M
- Average P. berghei 3 µM response( %) [7]: 77%

SMILES: COc1ccc(CN2C[C@@H](F)[C@@H](OCc3nc4cc(C)ccc4[nH]3)C2)cc1 [NCGC00393009-01]
- CC50 at 48 h [2]: > 57 µM

SMILES: COCCNc1ncccc1-c1noc([C@@H]2CCCN2Cc2ccccn2)n1 [NCGC00394837-01]
- AC50 [1]: 7.69 µM
- CC50 at 48 h [2]: > 57 µM

SMILES: COCC(=O)N[C@H]1C[C@@H](Cc2cc(-c3ccc(OC)cc3)on2)C1(C)C [NCGC00395450-01]
- CC50 at 48 h [2]: > 57 µM

SMILES: CN(C)c1ccc2ncc(Nc3ccc(Oc4ccccc4)cc3)n2n1 [NCGC00412534-01]
- AC50 [1]: 8.63 µM
- CC50 at 48 h [2]: > 57 µM

SMILES: O=C(Nc1ccc(Cl)cc1)c1nc2c(o1)CCN(Cc1ccc(F)cc1F)CC2 [NCGC00413332-01]
- CC50 at 48 h [2]: > 57 µM

SMILES: Cc1csc(Nc2ccc3c(n2)CN(Cc2ccccc2C)C(=O)CO3)n1 [NCGC00413860-01]
- AC50 [1]: 19.3 µM
- CC50 at 48 h [2]: > 57 µM

SMILES: O=C(c1ccc(-c2ncc3cnc(-c4cccc(F)c4)cn23)cc1)N1CCc2cccnc21 [NCGC00414026-01]
- CC50 at 48 h [2]: > 57 µM

SMILES: O=c1c2nc(-c3cccc(O)c3)ccc2ncn1C1CC1 [NCGC00414734-01]
- CC50 at 48 h [2]: > 57 µM

SMILES: Cc1noc(C)c1-c1cc2c(cc(-c3ccccc3)n2C)c(-c2ccnn2C)n1 [NCGC00417162-01]
- AC50 [1]: 8.63 µM
- CC50 at 48 h [2]: > 57 µM

SMILES: Cc1nn2c(c1-c1ccccc1-c1ccccc1)N(Cc1cccc(O)c1)CCC2 [NCGC00420293-01]
- AC50 [1]: 4.85 µM
- CC50 at 48 h [2]: > 57 µM

SMILES: Cc1nn2c(c1-c1ccccc1Oc1ccccc1)N(Cc1cccc(O)c1)CCC2 [NCGC00420295-01]
- AC50 [1]: 10.9 µM
- CC50 at 48 h [2]: > 57 µM

SMILES: Cc1nn2c(c1-c1ccccc1[S+](C)(=O)[O-])N(Cc1ccc(C(=O)O)s1)CCC2 [NCGC00420344-01]
- AC50 [1]: 7.69 µM
- CC50 at 48 h [2]: > 57 µM

SMILES: Cc1nn2c(c1-c1ccccc1C(C)C)N(CCC(C)C)CCC2 [NCGC00420439-01]
- AC50 [1]: 2.17 µM
- CC50 at 48 h [2]: > 57 µM

SMILES: Cc1nn2c(c1-c1ccccc1Oc1ccccc1)N(Cc1ccccc1O)CCC2 [NCGC00420455-01]
- AC50 [1]: 4.85 µM
- CC50 at 48 h [2]: > 57 µM
- HepG2 viability signal, 1 uM, repeat 2 [5]: 99.80%
- HepG2 viability signal, 3 uM, repeat 2 [5]: 116.91%
- viability at 48 h, 1 µM [3]: 104%
- viability at 48 h, 3 µM [3]: 115%
- activity at 1 µM [7, 10]: 75.6%
- activity at 1 µM [7, 11]: 75%
- activity at 1 µM [7, 12]: 78.3%
- activity at 3 µM [7, 13]: 1.18%
- activity at 3 µM [7, 14]: 4.89%
- activity at 3 µM [7, 15]: 23.7%
- AC50 ([7]; Hill fit, 50% of maximum activity response, read-out: AC50): 1.41 µM
- AC50 ([7]; log10 of molar AC50 from Hill fit, read-out: Log AC50 (converted)): 1.41 µM

SMILES: Cc1nn2c(c1-c1ccccc1OCc1ccccc1)N(Cc1ccccc1)CCC2 [NCGC00420471-01]
- AC50 [1]: 15.3 µM
- CC50 at 48 h [2]: > 57 µM

SMILES: COc1ccc(N2CCN(c3cc(C4CC(N)C4)nc(N)n3)CC2(C)C)cc1 (centres unmarked) [NCGC00422579-01]
- AC50 [1]: 2.99 µM
- CC50 at 48 h [2]: > 57 µM
- HepG2 viability signal, 1 uM, repeat 2 [5]: 102.33%
- HepG2 viability signal, 3 uM, repeat 2 [5]: 97.69%
- viability at 48 h, 1 µM [3]: 103%
- viability at 48 h, 3 µM [3]: 102%
- activity at 1 µM [7, 10]: 82.6%
- activity at 1 µM [7, 11]: 91.8%
- activity at 1 µM [7, 12]: 99.3%
- activity at 3 µM [7, 13]: 76.6%
- activity at 3 µM [7, 14]: 88.5%
- activity at 3 µM [7, 15]: 81.6%

SMILES: COc1ccc(-c2cc3nc4c(c(=O)n3[nH]2)CN(C(=O)c2ccc(Cc3c(C)noc3C)o2)CC4)cc1 [NCGC00440331-01]
- CC50 at 48 h [2]: 0.685 µM

SMILES: O=c1[nH]c(N2CCOCC2)nc2c1CCN(Cc1ccc(Cl)cc1F)CC2 [NCGC00440653]
- Activity direction (Decrease / Inactive) ([8]; P. berghei liver stage): Decrease
- AC50 ([8]; read-out: AC50): 0.112 µM
- AC50 ([8]; read-out: Log AC50 (converted)): 0.112 µM
- Average HepG2 3 µM response( %) ([5]; HepG2, 3 µM dose): 102%
- Average HepG2 3 µM response( %) [5, 9]: 102%
- AC50 ([6]; Plasmodium falciparum, DD2, averaged P. falciparum asexual blood stage potency, read-out: Pf ABS Log AC50 (converted)): 3.35 µM
- Average P. berghei 3 µM response( %) [7]: 41%
- Average P. berghei 1 µM response (%) [7]: 39%
